Results reported in publication PMC10993276 (ACS Omega, 2024).

Legend:
α-glucosidase = α-glucosidase (Saccharomyces cerevisiae, UniProt P53341); assay: α-glucosidase inhibition assay; type: biochemical
β-glucosidase = β-glucosidase inhibition assay; type: biochemical; details: final concentration of 100 μM in every well; pH 6.8, 37 °C

α-glucosidase, sequence (P53341 whole entry): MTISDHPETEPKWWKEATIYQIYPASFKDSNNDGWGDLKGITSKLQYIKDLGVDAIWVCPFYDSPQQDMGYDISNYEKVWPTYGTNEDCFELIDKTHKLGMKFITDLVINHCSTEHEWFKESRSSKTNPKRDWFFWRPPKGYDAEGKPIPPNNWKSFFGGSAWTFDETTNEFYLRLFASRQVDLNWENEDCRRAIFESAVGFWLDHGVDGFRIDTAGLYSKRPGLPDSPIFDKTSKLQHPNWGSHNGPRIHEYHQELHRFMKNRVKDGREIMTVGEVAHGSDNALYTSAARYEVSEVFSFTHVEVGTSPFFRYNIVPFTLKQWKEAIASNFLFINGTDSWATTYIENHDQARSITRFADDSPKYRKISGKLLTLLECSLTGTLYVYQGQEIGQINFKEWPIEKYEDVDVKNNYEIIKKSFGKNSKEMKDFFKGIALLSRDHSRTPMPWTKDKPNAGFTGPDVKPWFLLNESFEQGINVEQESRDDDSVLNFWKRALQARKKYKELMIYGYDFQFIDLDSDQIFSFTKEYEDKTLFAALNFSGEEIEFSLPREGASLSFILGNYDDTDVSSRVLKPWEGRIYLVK

SMILES: COc1cc(C(=O)N=c2scc(-c3ccc(F)cc3)n2-c2ccc(F)c(Cl)c2)cc(OC)c1OC [6a, N-(3-(3-Chloro-4-fluorophenyl)-4-(4-fluorophenyl)thiazol-2(3H)-ylidene)-3,4,5-trimethoxybenzamide]
- IC50 (α-glucosidase): 18.2 ± 0.02 µM
- β-glucosidase % age inhibition (β-glucosidase): 11.2%

SMILES: O=C(N=c1scc(-c2ccc(F)cc2)n1-c1ccccc1F)c1ccccc1Cl [6b, 2-Chloro-N-(3-(2-fluorophenyl)-4-(4-fluorophenyl)thiazol-2(3H)-ylidene)benzamide]
- IC50 (α-glucosidase): 3.23 ± 0.07 µM
- β-glucosidase % age inhibition (β-glucosidase): 24.2%

SMILES: O=C(N=c1scc(-c2ccc(F)cc2)n1-c1ccccc1F)c1ccccc1F [6c, 2-Fluoro-N-(3-(2-fluorophenyl)-4-(4-fluorophenyl)thiazol-2(3H)-ylidene)benzamide]
- IC50 (α-glucosidase): 2.98 ± 0.04 µM
- β-glucosidase % age inhibition (β-glucosidase): 36.3%

SMILES: O=C(N=c1scc(-c2ccc(F)cc2)n1-c1ccccc1F)c1cccc(F)c1 [6d, 3-Fluoro-N-(3-(2-fluorophenyl)-4-(4-fluorophenyl) Thiazol-2(3H)-ylidene)benzamide]
- IC50 (α-glucosidase): 1.47 ± 0.05 µM
- α-glucosidase inhibitory efficacy, folds stronger than acarbose (α-glucosidase; ratio of IC50 values versus acarbose): ~24 folds
- β-glucosidase % age inhibition (β-glucosidase): 18.6%

SMILES: COc1cc(C(=O)N=c2scc(-c3ccc(F)cc3)n2-c2ccc(F)cc2)cc(OC)c1OC [6e, N-(3,4-Bis(4-fluorophenyl)thiazol-2(3H)-ylidene)-3,4,5-trimethoxybenzamide]
- IC50 (α-glucosidase): 2.1 ± 0.06 µM
- β-glucosidase % age inhibition (β-glucosidase): 9.33%

SMILES: O=C(N=c1scc(-c2ccc(F)cc2)n1-c1ccc(F)c(Cl)c1)c1ccc(F)cc1 [6g, N-(3-(3-Chloro-4-fluorophenyl)-4-(4-fluorophenyl)thiazol-2(3H)-ylidene)-4-fluorobenzamide]
- IC50 (α-glucosidase): 3.16 ± 0.15 µM
- β-glucosidase % age inhibition (β-glucosidase): 20.1%

SMILES: O=C(N=c1scc(-c2ccc(F)cc2)n1-c1ccc(F)cc1)c1ccccc1Cl [6h, N-(3,4-Bis(4-fluorophenyl) Thiazol-2(3H)-ylidene)-2-chlorobenzamide]
- IC50 (α-glucosidase): 4.33 ± 0.19 µM
- β-glucosidase % age inhibition (β-glucosidase): 17.5%

SMILES: COc1cc(C(=O)N=c2scc(-c3ccc(F)cc3)n2-c2cccc(F)c2)cc(OC)c1OC [6i, N-(3-(3-Fluorophenyl)-4-(4-fluorophenyl)thiazol-2(3H)-ylidene)-3,4,5-trimethoxybenzamide]
- IC50 (α-glucosidase): 8.31 ± 0.13 µM
- β-glucosidase % age inhibition (β-glucosidase): 15.4%

SMILES: O=C(N=c1scc(-c2ccc(F)cc2)n1-c1ccc(F)c(Cl)c1)c1ccccc1F [6j, N-(3-(3-Chloro-4-fluorophenyl)-4-(4-fluorophenyl)thiazol-2(3H)-ylidene)-2-fluorobenzamide]
- IC50 (α-glucosidase): 12.5 ± 0.22 µM
- β-glucosidase % age inhibition (β-glucosidase): 12.8%

SMILES: C[C@H]1O[C@H](O[C@H]2[C@H](O)[C@@H](O)[C@@H](O[C@H]3[C@H](O)[C@@H](O)C(O)O[C@@H]3CO)O[C@@H]2CO)[C@H](O)[C@@H](O)[C@@H]1N[C@H]1C=C(CO)[C@@H](O)[C@H](O)[C@H]1O (some centres unmarked) [acarbose, reference compound]
- β-glucosidase % age inhibition (β-glucosidase): 63.7%
